Measurements: US11427548B2 (Arvinas Operations, Inc., priority 2015, dated 2022)
Where two headings read alike, the source gives them in different places.

Biological target: T1, Androgen Receptor (Homo sapiens, UniProt P10275)
T1 construct: endogenous in cells; host or cells: VCaP cells
T1 sequence (P10275 1-920): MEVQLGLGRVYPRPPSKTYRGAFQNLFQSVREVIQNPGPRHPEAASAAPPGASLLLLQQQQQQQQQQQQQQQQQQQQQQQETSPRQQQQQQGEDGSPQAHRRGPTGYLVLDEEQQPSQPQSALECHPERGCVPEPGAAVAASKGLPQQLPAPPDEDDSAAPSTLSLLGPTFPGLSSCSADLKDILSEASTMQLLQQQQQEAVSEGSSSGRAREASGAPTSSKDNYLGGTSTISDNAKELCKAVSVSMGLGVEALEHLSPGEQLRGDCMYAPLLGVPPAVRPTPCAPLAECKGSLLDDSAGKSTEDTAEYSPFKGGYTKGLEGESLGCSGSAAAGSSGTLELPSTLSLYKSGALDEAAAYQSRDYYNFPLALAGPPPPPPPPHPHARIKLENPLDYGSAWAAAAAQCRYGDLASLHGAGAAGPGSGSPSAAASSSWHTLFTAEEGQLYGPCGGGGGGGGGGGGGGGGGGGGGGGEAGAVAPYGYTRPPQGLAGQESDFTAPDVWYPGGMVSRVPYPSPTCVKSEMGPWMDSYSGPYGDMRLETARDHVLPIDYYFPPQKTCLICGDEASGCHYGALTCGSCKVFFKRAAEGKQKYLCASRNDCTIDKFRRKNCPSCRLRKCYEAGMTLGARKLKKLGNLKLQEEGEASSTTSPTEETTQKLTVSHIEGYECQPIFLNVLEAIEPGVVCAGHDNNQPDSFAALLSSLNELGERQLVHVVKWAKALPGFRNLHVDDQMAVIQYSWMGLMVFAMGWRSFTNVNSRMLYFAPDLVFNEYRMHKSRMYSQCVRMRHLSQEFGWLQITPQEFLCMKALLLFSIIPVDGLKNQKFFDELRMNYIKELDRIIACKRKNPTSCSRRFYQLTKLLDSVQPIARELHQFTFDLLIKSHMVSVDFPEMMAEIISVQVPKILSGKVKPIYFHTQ
Test: Androgen Receptor ELISA assay (PathScan AR ELISA) in VCaP cells: AR degradation, Dmax and DC50
Type: cell-based
Method in brief: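 VCaP cells, 30,000/well, grown ≥3 days in phenol red-free RPMI with 5% charcoal-stripped FBS; compound added in 0.1% DMSO with 0.1 nM R1881, 7 half-log doses, 24 h. Lysate AR quantified by PathScan sandwich ELISA, HRP/TMB read at 450 nm, giving DC50 and Dmax.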

[1] = VCaP cells; Table 34; read-out: VCaP DC50
[2] = VCaP, VCaP cells; Table 34; read-out: VCaP Dmax (%)
[3] = VCaP cells; Table 35; read-out: VCaP DC50
[4] = VCaP, VCaP cells; Table 35; read-out: VCaP Dmax (%)
[5] = VCaP cells; Table 36; read-out: VCaP DC50
[6] = VCaP, VCaP cells; Table 36; read-out: VCaP Dmax (%)

How did the DC50 [1] turn out when `Cc1ncsc1-c1ccc(CNC(=O)[C@@H]2C[C@@H](O)CN2C(=O)[C@@H](NC(=O)COCCCCNc2ccc(C(=O)N[C@H]3C(C)(C)[C@H](Oc4ccc(C#N)c(Cl)c4)C3(C)C)cn2)C(C)(C)C)cc1` [Example 416] was run?
The DC50 was 51 to 500 nM.

And the Dmax [2]?
Its Dmax is 26 to 50%.

What does the source list for `CC(C)(C)[C@H](NC(=O)COCCCCOCCn1cc(C(=O)N[C@H]2C(C)(C)[C@H](Oc3ccc(C#N)c(Cl)c3)C2(C)C)cn1)C(=O)N1C[C@H](O)C[C@H]1C(=O)NCc1ccc(-c2cncs2)cc1` [Example 347]?
DC50 [1]: < 50 nM; Dmax [2]: 51 to 70%

How did the DC50 [3] turn out when `CC(C)[C@H](NC(=O)COCCCCCNc1ccc(C(=O)N[C@H]2C(C)(C)[C@H](Oc3ccc(C#N)c(Cl)c3)C2(C)C)cc1)C(=O)N1C[C@H](O)C[C@H]1C(=O)NCc1ccc(C#N)cc1` [Example 520] was run?
Its DC50 is > 501 nM.

And the Dmax [4]?
Its Dmax is 26 to 50%.

With `C#CCCC(=O)OC(CCOCCCOCC(=O)N[C@H](C(=O)N1C[C@H](O)C[C@H]1C(=O)N[C@@H](C)c1ccc(-c2scnc2C)cc1)C(C)(C)C)CCOc1ccc(N2C(=S)N(c3ccc(C#N)c(C(F)(F)F)c3)C(=O)C2(C)C)cc1` (stereo partly drawn) [Example 632, 1-(4-(3-(4-cyano-3-(trifluoromethyl)phenyl)-5,5-dimethyl-4-oxo-2-thioxoimidazolidin-1-yl)phenoxy)-5-(3-(2-(((S)-1-((2S,4R)-4-hydroxy-2-(((S)-1-(4-(4-mehtylthiazol-5-yl)phenyl)ethyl)carbam-oyl)pyrrolidin-1-yl)-3,3-dimethyl-1-oxobutan-2-yl)amino)-2-oxoethoxy)propoxy)pen-tan-3-yl pent-4-ynoate] as the molecule, how does the “VCaP Dmax (%)” value (VCaP cells; Table 36) read?
Its value is “++ (26% ≤ Dmax ≤ 50%)”.

What about the DC50 [5] of the same molecule?
The DC50 was > 501 nM.

For `CC(C)(C)[C@H](NC(=O)COCC1CC2(C1)CC(COc1ccc(N3C(=S)N(c4ccc(C#N)c(Cl)c4)C(=O)C3(C)C)cc1)C2)C(=O)N1C[C@H](O)C[C@H]1C(=O)NCc1ccc(-c2cnco2)cc1` (some centres unmarked) [Example 200], which Dmax (VCaP, read-out: VCaP Dmax (%)) is on record?
Its Dmax is > 71%.

And the DC50 (read-out: VCaP DC50; VCaP cells; concentration that caused 50% Androgen Receptor degradation)?
The DC50 was < 50 nM.

`CC(C)(C)[C@H](NC(=O)COCCCCCNc1ccc(C(=O)N[C@H]2C(C)(C)[C@H](Oc3ccc(C#N)c(Cl)c3)C2(C)C)cc1)C(=O)N1C[C@H](O)C[C@H]1C(=O)NCc1ccc(-c2nnc[nH]2)cc1` [Example 528] was tested. Which DC50 [3] did it give?
Its DC50 is < 50 nM.

And the Dmax [4]?
Its Dmax is 51 to 70%.

With `Cc1ncoc1-c1ccc(CNC(=O)[C@@H]2C[C@@H](O)CN2C(=O)[C@@H](NC(=O)COCCCCOc2ccc(-c3ccc(N4C(=S)N(c5ccc(C#N)c(C(F)(F)F)c5)C(=O)C4(C)C)c(F)c3)cc2)C(C)(C)C)cc1` [Example 116, (2S,4R)-1-[(2S)-2-(2-{4-[4-(4-{3-[4-cyano-3-(trifluoromethyl)phenyl]-5,5-dimethyl-4-oxo-2-sulfanylideneimidazolidin-1-yl}-3-fluorophenyl)phen-oxy]butoxy}acetamido)-3,3-dimethylbutanoyl]-4-hydroxy-N-{[4-(4-methyl-1,3-oxazol-5-yl)phenyl]methyl}pyrrolidine-2-carboxamide] as the molecule, how does the Dmax (VCaP, read-out: VCaP Dmax (%)) read?
Its Dmax is > 71%.

What about the DC50 (read-out: VCaP DC50; concentration that caused 50% Androgen Receptor degradation, VCaP cells (Table 32)) of the same molecule?
The DC50 was < 50 nM.

For `Cc1ncsc1-c1ccc([C@H](C)NC(=O)[C@@H]2C[C@@H](O)CN2C(=O)[C@@H](C(C)C)n2cc(-c3ccnc(OC4CN(c5ccc(C(=O)N[C@H]6C(C)(C)[C@H](Oc7ccc(C#N)c(Cl)c7)C6(C)C)cn5)C4)c3)cn2)cc1` [Example 595, N-((1r,3r)-3-(3-chloro-4-cyanophenoxy)-2,2,4,4-tetramethylcyclobutyl)-6-(3-((4-(1-((R)-1-((2S,4R)-4-hydroxy-2-(((S)-1-(4-(4-methylthiazol-5-yl)phenyl)ethyl)carbam-oyl)pyrrolidin-1-yl)-3-methyl-1-oxobutan-2-yl)-1H-pyrazol-4-yl)pyridin-2-yl)oxy)azetidin-1-yl)nicotinamide], which DC50 [5] is on record?
Its DC50 is < 50 nM.

And the Dmax [6]?
Its Dmax is 51 to 70%.

Which Dmax (VCaP, read-out: VCaP Dmax (%)) does the source give for `Cc1ncsc1-c1ccc(CNC(=O)[C@@H]2C[C@@H](O)CN2C(=O)[C@@H](NC(=O)COCCOCCOCCOc2ccc(N3C(=S)N(c4ccc(C#N)c(C(F)(F)F)c4)C(=O)C3(C)C)cc2)C(C)(C)C)cc1` [Example 16, (2S,4R)-1-[(2S)-2-[2-(2-{2-[2-(4-{3-[4-cyano-3-(trifluoromethyl)phenyl]-5,5-dimethyl-4-oxo-2-sulfanylideneimidazolidin-1-yl}phenoxy)ethoxy]ethoxy}ethoxy)acetamido]-3,3-dimethylbutanoyl]-4-hydroxy-N-{[4-(4-methyl-1,3-thiazol-5-yl)phenyl]methyl}pyrrolidine-2-carboxamide] here?
The Dmax was 26 to 50%.

How did the Dmax (VCaP, highest percentage of Androgen Receptor degradation observed, VCaP cells (Table 32); read-out: VCaP Dmax (%)) turn out when `Cc1ncsc1-c1ccc(CNC(=O)[C@@H]2C[C@@H](O)CN2C(=O)[C@@H](NC(=O)CO[C@H](C)CCCCOc2ccc(C(=O)N[C@H]3C(C)(C)[C@H](Oc4ccc(C#N)c(Cl)c4)C3(C)C)cc2)C(C)(C)C)cc1` [Example 158, (2S,4R)-1-[(2S)-3,3-dimethyl-2-(2-{[(2R)-6-(4-{[trans-3-(3-chloro-4-cyanophenoxy)-2,2,4,4-tetramethylcyclobutyl]carbamoyl}phen-oxy)hexan-2-yl]oxy}acetamido)butanoyl]-4-hydroxy-N-{[4-(4-methyl-1,3-thiazol-5-yl)phenyl]methyl}pyrrolidine-2-carboxamide] was run?
The Dmax was > 71%.

And the DC50 (concentration that caused 50% Androgen Receptor degradation, VCaP cells (Table 32); read-out: VCaP DC50)?
The DC50 was < 50 nM.

How did the DC50 [3] turn out when `CC(C)(C)[C@H](NC(=O)COCCCCCNc1ccc(C(=O)N[C@H]2C(C)(C)[C@H](Oc3ccc(C#N)c(Cl)c3)C2(C)C)cc1)C(=O)N1C[C@H](O)C[C@H]1C(=O)NCc1ccc(-c2scnc2C2CC2)cc1` [Example 555] was run?
The DC50 was < 50 nM.

And the Dmax [4]?
The Dmax was > 71%.

For `Cc1ncsc1-c1ccc([C@H](C)NC(=O)C2C[C@@H](O)CN2C(=O)C(NC(=O)CN2CCC(OCCOc3ccc(C(=O)N[C@H]4C(C)(C)[C@H](Oc5ccc(C#N)c(Cl)c5)C4(C)C)cc3)CC2)C(C)(C)C)cc1` (stereo partly drawn) [Example 623, (2S,4R)-1-((S)-2-(2-(4-(2-(4-(((1r,3r)-3-(3-chloro-4-cyanophenoxy)-2,2,4,4-tetramethylcyclobutyl)carbamoyl)phenoxy)eth-oxy)piperidin-1-yl)acetamido)-3,3-dimethylbutanoyl)-4-hydroxy-N-((S)-1-(4-(4-methylthiazol-5-yl)phenyl)ethyl)pyrrolidine-2-carboxamide], which DC50 [5] is on record?
Its DC50 is < 50 nM.

What about the Dmax [6] of the same molecule?
The Dmax was > 71%.

Which DC50 [3] does the source give for `COc1ccc(CNC(=O)[C@@H]2C[C@@H](O)CN2C(=O)[C@@H](NC(=O)COCCCCCNc2ccc(C(=O)N[C@H]3C(C)(C)[C@H](Oc4ccc(C#N)c(Cl)c4)C3(C)C)cc2)C(C)(C)C)cc1` [Example 522] here?
Its DC50 is < 50 nM.

And the Dmax [4]?
Its Dmax is 51 to 70%.

What does the source list for `Cc1ncsc1-c1ccc(CNC(=O)[C@@H]2C[C@@H](O)CN2C(=O)[C@@H](NC(=O)COCCCOCCCCOc2ccc(N3C(=S)N(c4ccc(C#N)c(C(F)(F)F)c4)C(=O)C34CCOCC4)cc2)C(C)(C)C)cc1` [Example 43, (2S,4R)-1-[(2S)-2-(2-{3-[4-(4-{3-[4-cyano-3-(trifluoromethyl)phenyl]-4-oxo-2-sulfanylidene-8-oxa-1,3-diazaspiro[4.5]decan-1-yl}phenoxy)butoxy]propoxy}acetamido)-3,3-dimethylbutanoyl]-4-hydroxy-N-{[4-(4-methyl-1,3-thiazol-5-yl)phenyl]methyl}pyrrolidine-2-carboxamide]?
Dmax (VCaP, read-out: VCaP Dmax (%)): 51 to 70%; DC50 (read-out: VCaP DC50; concentration that caused 50% Androgen Receptor degradation, VCaP cells): < 50 nM

For `C[C@H](NC(=O)C1C[C@@H](O)CN1C(=O)[C@@H](NC(=O)COCCCCCc1ccc(C(=O)N[C@H]2C(C)(C)[C@H](Oc3ccc(C#N)c(Cl)c3)C2(C)C)cc1)C(C)(C)C)c1ccc(Cl)cc1` (stereo partly drawn) [Example 740, (2S,4R)-1-((S)-2-(2-((5-(4-(((1r,3r)-3-(3-chloro-4-cyanophenoxy)-2,2,4,4-tetramethylcyclobutyl)carbamoyl)phenyl)pentyl)oxy)acetamido)-3,3-dimethylbutanoyl)-N-((S)-1-(4-chlorophenyl)ethyl)-4-hydroxypyrroldiine-2-carboxamide], which DC50 [5] is on record?
The DC50 was < 50 nM.

And the Dmax [6]?
Its Dmax is 51 to 70%.
